Laboratory results as given in patent US12644100B2, “Methods for treating metabolic disorders by targeting ADCY5” (THE BROAD INSTITUTE, INC., priority 2019, dated 2026).

System: primary differentiating osteoblasts
Test: Osteoblast differentiation assay (ALP activity) in primary differentiating osteoblasts treated with etomoxir
Assay type: cell-based, human
Conditions: 100 μM etomoxir between day 2 and day 5 of differentiation
Protocol: FIG. 9A-9E—3q21.1 haplotype affects lipid oxidation in adipocytes and osteoblasts. (9A) Osteoblast alkaline phosphatase (ALP) activity in primary differentiating osteoblasts treated with 100 μM etomoxir (carnitine palmitoyltransferase 1 antagonist) or negative control. Assays were performed in cells from 18 heterozygous individuals (haplotypes 1/2) and 23 homozygous individuals (haplotypes 1/1) and differentiating osteoblasts were treated between day 2 and day 5 of differentiation. (9B) Oxidation of [14C]palmitate (0.5 mM) to 14CO2 in primary differentiating osteoblasts treated with 100 μM etomoxir (carnitine palmitoyltransferase 1 antagonist) or negative control. […] Seahorse XF24 Flux analyzer was performed at each time point and contribution of ATP generation was calculated from glycolysis vs. oxidative phosphorylation. […] Isogenic lines were differentiated to osteoblasts after undergoing clonal expansion, and marker gene expression for osteoblast differentiation was measured by qPCR. […] Isogenic lines were differentiated to adipocytes after undergoing clonal expansion, and catecholamine-stimulated lipolysis was measured. […]
Culture and differentiation of primary human AMSCs. […] Additionally, small quantities of the original liposuction material would be aliquoted into T-25 flasks at a 1:1 ratio of fat to medium as controls to check for contamination. […]

Structure (SMILES): CCOC(=O)[C@@]1(CCCCCCOc2ccc(Cl)cc2)CO1 [etomoxir]
- osteoblast differentiation (ALP activity) (haplotype 1 homozygotes (n=23), p-value=0.005): dramatic reduction in osteoblast differentiation
- osteoblast differentiation (ALP activity) (heterozygotes haplotypes 1/2 (n=18)): no effect
